From patent US20250313563A1, “GLYCOGEN SYNTHASE KINASE 3 INHIBITORS AND USES THEREOF” (The Broad Institute, Inc., priority 2022, published 2025)
Where two headings read alike, the source gives them in different places.

Experiments:
[1] = target: GSK3α (GST-full length GSK3α) (Homo sapiens (Human), UniProt P49840); assay: GSK3α TR-FRET kinase assay; assay type: biochemical
How it was run: (§1)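 1 nM GST-GSK3α/β + cpd, 30 min preinc; add 200 nM biotin-pS645 GS(631-650) peptide + ATP (α 4 μM / β 2 μM, or 1 mM); 100 min RT, 50 mM Tris pH 7.5, 20 mM MgCl2, 1% DMSO; EDTA stop; SA-d2/Tb-pSer641 Ab 60 min; 665/615 ratio → IC50.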

[2] = target: GSK3b (GST-full length GSK3b) (Homo sapiens (Human), UniProt P49841); assay: GSK3b TR-FRET kinase assay; assay type: biochemical
Chain of GSK3b (GST-full length GSK3b) (P49841 whole entry): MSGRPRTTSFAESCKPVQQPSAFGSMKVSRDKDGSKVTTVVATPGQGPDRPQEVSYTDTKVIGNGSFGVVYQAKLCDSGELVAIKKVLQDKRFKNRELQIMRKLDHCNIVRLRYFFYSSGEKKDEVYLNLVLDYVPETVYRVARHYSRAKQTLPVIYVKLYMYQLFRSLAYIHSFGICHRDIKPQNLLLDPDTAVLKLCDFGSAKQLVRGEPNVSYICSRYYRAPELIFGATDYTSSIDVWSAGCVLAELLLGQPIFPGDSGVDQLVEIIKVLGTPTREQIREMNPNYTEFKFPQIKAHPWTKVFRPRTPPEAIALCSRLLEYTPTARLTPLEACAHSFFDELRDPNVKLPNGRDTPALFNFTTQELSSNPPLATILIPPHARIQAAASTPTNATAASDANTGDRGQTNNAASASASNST
How it was run: as §1

[3] = 1 nM GSK3α, 4 μM ATP, 30 minute preincubation, Table 16, read-out: GSK3-A TR-FRET BIOCHEMICAL (TR-FRET)
[4] = GSK3-A (TR-FRET 1 mM ATP), GMean, IC50, 1 mM ATP, geometric mean
[5] = 1 nM GSK3b, 2 μM ATP, 30 minute preincubation, Table 16, read-out: GSK3-B TR-FRET BIOCHEMICAL (TR-FRET)
[6] = GSK3-B (TR-FRET 1 mM ATP), GMean, IC50, 1 mM ATP, geometric mean
[7] = 1 nM GSK3α, 4 μM ATP, 30 minute preincubation, Table 16, read-out: GSK3-A TR-FRET BIOCHEMICAL (TR-FRET), IC50
[8] = 1 nM GSK3b, 2 μM ATP, 30 minute preincubation, Table 16, read-out: GSK3-B TR-FRET BIOCHEMICAL (TR-FRET), IC50
[9] = 1 nM GSK3α, 4 μM ATP, 30 minute preincubation, read-out: GSK3-A TR-FRET BIOCHEMICAL (TR-FRET), IC50
[10] = 1 nM GSK3b, 2 μM ATP, 30 minute preincubation, read-out: GSK3-B TR-FRET BIOCHEMICAL (TR-FRET), IC50
[11] = read-out: GSK3-B (TR-FRET 1 mM ATP), GMean, IC50, 1 mM ATP, geometric mean

Chain of GSK3α (GST-full length GSK3α) (P49840 whole entry): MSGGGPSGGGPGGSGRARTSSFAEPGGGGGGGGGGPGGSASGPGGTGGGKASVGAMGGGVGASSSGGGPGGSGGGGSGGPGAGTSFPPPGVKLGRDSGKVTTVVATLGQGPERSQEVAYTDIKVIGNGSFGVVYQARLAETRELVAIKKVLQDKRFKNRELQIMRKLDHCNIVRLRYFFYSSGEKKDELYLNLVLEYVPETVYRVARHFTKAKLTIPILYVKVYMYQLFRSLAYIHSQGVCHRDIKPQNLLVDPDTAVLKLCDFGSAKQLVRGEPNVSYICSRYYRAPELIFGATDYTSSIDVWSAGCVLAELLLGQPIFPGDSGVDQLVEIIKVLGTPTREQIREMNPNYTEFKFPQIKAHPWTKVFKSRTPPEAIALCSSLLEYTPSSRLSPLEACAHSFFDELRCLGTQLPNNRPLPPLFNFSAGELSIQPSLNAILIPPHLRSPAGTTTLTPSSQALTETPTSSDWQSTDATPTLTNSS

| Compound | IC50 [1, 7] | IC50 [2, 8] | further results |
| --- | --- | --- | --- |
| COc1cccc(S(=O)(=O)N2CCC3(CC2)C2=C(CC(C)(C)CC2=O)Nc2n[nH]cc23)c1 [Compound 901468] | – | – | IC50 [1, 3]: ≤ 100 nM; IC50 [1, 4]: 100 to 1000 nM; IC50 [2, 5]: ≤ 100 nM; IC50 [2, 6]: 1000 to 5000 nM |
| COc1ccc(S(=O)(=O)N2CCC3(CC2)C2=C(CC(C)(C)CC2=O)Nc2n[nH]cc23)cc1 [Compound 901469] | – | – | IC50 [1, 4]: 100 to 1000 nM; IC50 [2, 6]: 100 to 1000 nM |
| CC1(C)CC(=O)C2=C(C1)Nc1n[nH]cc1C21CCN(S(=O)(=O)C2CC2)CC1 [Compound 901470] | – | – | IC50 [1, 3]: ≤ 100 nM; IC50 [1, 4]: 100 to 1000 nM; IC50 [2, 5]: ≤ 100 nM; IC50 [2, 6]: 100 to 1000 nM |
| Cn1ccc(S(=O)(=O)N2CCC3(CC2)C2=C(CC(C)(C)CC2=O)Nc2n[nH]cc23)n1 [Compound 901471] | – | – | IC50 [1, 3]: ≤ 100 nM; IC50 [1, 4]: 100 to 1000 nM; IC50 [2, 5]: ≤ 100 nM; IC50 [2, 6]: 1000 to 5000 nM |
| CO[C@H]1C[C@@]2(C1)C1=C(CC(C)(C)CC1=O)Nc1n[nH]cc12 [Compound 901472] | > 5000 nM | > 5000 nM | – |
| CO[C@H]1C[C@]2(C1)C1=C(CC(C)(C)CC1=O)Nc1n[nH]cc12 [Compound 901473] | > 5000 nM | > 5000 nM | – |
| CC1(C)CC(=O)C2=C(C1)Nc1n[nH]cc1C21CN(S(=O)(=O)c2ccccc2)C1 [Compound 901474] | – | – | IC50 [1, 3]: ≤ 100 nM; IC50 [2, 5]: ≤ 100 nM |
| O=C1C[C@@]2(CCOC2)CC2=C1C1(CCOCC1)c1c[nH]nc1N2 [Compound 901475] | – | – | IC50 [1, 3]: 100 to 1000 nM; IC50 [2, 5]: 100 to 1000 nM |
| O=C1C[C@]2(CCOC2)CC2=C1C1(CCOCC1)c1c[nH]nc1N2 [Compound 901476] | – | – | IC50 [1, 3]: 100 to 1000 nM; IC50 [2, 5]: 100 to 1000 nM |
| O=C1C[C@H](C(F)(F)F)CC2=C1C1(CCOCC1)c1c[nH]nc1N2 [Compound 901477] | 100 to 1000 nM | 1000 to 5000 nM | – |
| O=C1C[C@@H](C(F)(F)F)CC2=C1C1(CCOCC1)c1c[nH]nc1N2 [Compound 901478] | 100 to 1000 nM | 100 to 1000 nM | – |
| CCC1(c2cccc(OC)c2)C2=C(CC(C)(C)CC2=O)Nc2n[nH]c(C(=O)OC)c21 (centres unmarked) [Compound 901480] | ≤ 100 nM | 100 to 1000 nM | – |
| CC1(C)CC(=O)C2=C(C1)Nc1n[nH]cc1[C@@]21CCOC2(CCCC2)C1 [Compound 907326] | – | – | IC50 [1, 9]: 100 to 1000 nM; IC50 [2, 10]: 1000 to 5000 nM |
| CC1(C)CC(=O)C2=C(C1)Nc1n[nH]cc1[C@]21CCOC2(CCCC2)C1 [Compound 907327] | – | – | IC50 [1, 9]: 100 to 1000 nM; IC50 [2, 10]: 1000 to 5000 nM |
| CC[C@@H]1C[C@]2(CCO1)C1=C(CC(C)(C)CC1=O)Nc1n[nH]cc12 [Compound 907328] | 100 to 1000 nM | 1000 to 5000 nM | – |
| CC[C@H]1C[C@@]2(CCO1)C1=C(CC(C)(C)CC1=O)Nc1n[nH]cc12 [Compound 907329] | 100 to 1000 nM | 1000 to 5000 nM | – |
| CC1(C)CC(=O)C2=C(C1)Nc1n[nH]cc1C21CCN(S(=O)(=O)C2CCCC2)CC1 [Compound 909206] | ≤ 100 nM | ≤ 100 nM | IC50 [1, 4]: ≤ 100 nM; IC50 [2, 6]: 100 to 1000 nM |
| CC1(C)CC(=O)C2=C(C1)Nc1n[nH]cc1C21CCN(S(=O)(=O)CC2CC2)CC1 [Compound 909207] | – | – | IC50 [1, 9]: ≤ 100 nM; IC50 [1, 4]: ≤ 100 nM; IC50 [2, 10]: ≤ 100 nM; IC50 [2, 6]: 100 to 1000 nM |
| O=C1CC2(CCC2)CC2=C1C1(CCOCC1)c1c[nH]nc1N2 [Compound 909208] | – | – | IC50 [1, 3]: ≤ 100 nM; IC50 [2, 5]: 100 to 1000 nM |
| CC1(C)CC(=O)C2=C(C1)Nc1n[nH]cc1C21CN(c2ccncn2)C1 [Compound 909209] | 1000 to 5000 nM | 1000 to 5000 nM | – |
| CC1(C)CC(=O)C2=C(C1)Nc1n[nH]cc1[C@]21C[C@H](OCc2ccccc2)C1 [Compound 909210] | – | – | IC50 [1, 3]: 100 to 1000 nM; IC50 [2, 5]: 100 to 1000 nM |
| CC1(C)CC(=O)C2=C(C1)Nc1n[nH]cc1[C@]21C[C@@H](OCc2ccccc2)C1 [Compound 909211] | – | – | IC50 [1, 3]: ≤ 100 nM; IC50 [2, 5]: 100 to 1000 nM |
| CC1(C)CC(=O)C2=C(C1)Nc1n[nH]cc1C21COC2(CN(C(=O)OC(C)(C)C)C2)C1 (centres unmarked) [Compound 911083] | – | – | IC50 [1, 9]: 100 to 1000 nM; IC50 [2, 10]: 1000 to 5000 nM |
| CCC1(c2cccc(C(F)(F)F)c2)C2=C(CC(C)NC2=O)Nc2n[nH]cc21 (centres unmarked) [Compound 911956] | – | – | IC50 [1, 9]: ≤ 100 nM; IC50 [2, 10]: 100 to 1000 nM |
| CC1OCCC12C1=C(CC(C)(C)CC1=O)Nc1n[nH]cc12 (centres unmarked) [Compound 911958] | > 5000 nM | > 5000 nM | – |
| CC1(C)CC(=O)C2=C(C1)Nc1n[nH]cc1C21COC2(CCC2)C1 (centres unmarked) [Compound 911973] | – | – | IC50 [1, 9]: 100 to 1000 nM; IC50 [2, 10]: 100 to 1000 nM |

Continued, in another order:

| IC50 [1, 7] | IC50 [2, 8] | Compound | further results |
| --- | --- | --- | --- |
| 100 to 1000 nM | 1000 to 5000 nM | CCC1(c2cccc(N3CC(C)(C)C3C(C)C)c2)C2=C(CC(C)(C)CC2=O)Nc2n[nH]cc21 (centres unmarked) [Compound 902969] | – |
| ≤ 100 nM | 100 to 1000 nM | CCC1(c2cccc(N(C)c3ccncn3)c2)C2=C(CC(C)(C)CC2=O)Nc2n[nH]cc21 (centres unmarked) [Compound 902970] | – |
| ≤ 100 nM | ≤ 100 nM | CCC1(c2cccc(N(C)c3cnccn3)c2)C2=C(CC(C)(C)CC2=O)Nc2n[nH]cc21 (centres unmarked) [Compound 902971] | – |
| 100 to 1000 nM | 1000 to 5000 nM | CCC1(c2cccc(N(C)C(=O)CN3CCCC3)c2)C2=C(CC(C)(C)CC2=O)Nc2n[nH]cc21 (centres unmarked) [Compound 909202] | – |
| 100 to 1000 nM | 1000 to 5000 nM | CCC1(c2cc(N3CCOCC3)ccc2F)C2=C(CC(C)(C)CC2=O)Nc2n[nH]cc21 (centres unmarked) [Compound 909203] | – |
| ≤ 100 nM | ≤ 100 nM | CCC1(c2cccc(S(=O)(=O)C3CC3)c2)C2=C(CC(C)(C)CC2=O)Nc2n[nH]cc21 (centres unmarked) [Compound 909204] | IC50 [2, 11]: 100 to 1000 nM |
| ≤ 100 nM | ≤ 100 nM | CCCC(C(C)=O)c1cccc(C2(CC)C3=C(CC(C)(C)CC3=O)Nc3n[nH]cc32)c1 (centres unmarked) [Compound 909205] | – |
| > 5000 nM | > 5000 nM | CC[C@]1(c2cc(-c3ccnc(C)c3)ccc2F)C2=C(CC(C)(C)CC2=O)Nc2n[nH]cc21 [Compound 909213] | – |
| ≤ 100 nM | ≤ 100 nM | CCN(C(C)=O)c1cccc([C@]2(CC)C3=C(CC(C)(C)CC3=O)Nc3n[nH]cc32)c1 [Compound 909214] | – |
| 100 to 1000 nM | 1000 to 5000 nM | CCN(C(C)=O)c1cccc(C2(CC)C3=C(CC(C)(C)CC3=O)Nc3n[nH]cc32)c1 (centres unmarked) [Compound 909215] | – |
| 100 to 1000 nM | 100 to 1000 nM | CC[C@@]1(c2ccccc2)C2=C(Nc3n[nH]cc31)[C@@H](C)C[C@@H](C)C2=O [Compound 909216] | – |
| 100 to 1000 nM | 1000 to 5000 nM | CC[C@]1(c2ccccc2)C2=C(Nc3n[nH]cc31)[C@@H](C)C[C@@H](C)C2=O [Compound 909217] | – |
| > 5000 nM | > 5000 nM | CC[C@]1(c2ccccc2)C2=C(Nc3n[nH]cc31)[C@H](C)C[C@H](C)C2=O [Compound 909218] | – |
| > 5000 nM | > 5000 nM | CC[C@@]1(c2ccccc2)C2=C(Nc3n[nH]cc31)[C@H](C)C[C@H](C)C2=O [Compound 909219] | – |
| ≤ 100 nM | 100 to 1000 nM | CC[C@@]1(c2cc(-c3cnn(C)c3)ccc2F)C2=C(CC(C)(C)CC2=O)Nc2n[nH]cc21 [Compound 909220] | – |
| > 5000 nM | > 5000 nM | CC[C@]1(c2cc(-c3cnn(C)c3)ccc2F)C2=C(CC(C)(C)CC2=O)Nc2n[nH]cc21 [Compound 909223] | – |
| 1000 to 5000 nM | > 5000 nM | CC[C@H]1CCN1c1cccc([C@@]2(CC)C3=C(CC(C)(C)CC3=O)Nc3n[nH]cc32)c1 [Compound 911972] | – |
| ≤ 100 nM | ≤ 100 nM | CCC1(c2cccc(N(C)c3cccnn3)c2)C2=C(CC(C)(C)CC2=O)Nc2n[nH]cc21 (centres unmarked) [Compound 911975] | IC50 ([1]; read-out: GSK3-A (TR-FRET 1 mM ATP), GMean, IC50, 1 mM ATP, geometric mean): 100 to 1000 nM; IC50 [2, 11]: 1000 to 5000 nM |
